Source: ChEMBL document CHEMBL5230143, “Inhibitors of gelatinases (MMP-2 and MMP-9) for the management of hematological malignancies” (Eur J Med Chem, 2021)

Columns and labels:
[1] = biological target: T1, Matrix metalloproteinase-9 (Homo sapiens, UniProt P14780); test: Inhibition of MMP-9 (unknown origin) assessed as inhibition constant
[2] = biological target: T2, 72 kDa type IV collagenase (Homo sapiens, UniProt P08253); test: Inhibition of MMP-2 (unknown origin) assessed as inhibition constant
[3] = biological target: T3, Neutrophil collagenase (Homo sapiens, UniProt P22894); test: Inhibition of MMP-8 (unknown origin) assessed as inhibition constant
[4] = biological target: T4, Histone deacetylase 8 (Homo sapiens, UniProt Q9BY41); test: Inhibition of HDAC-8 (unknown origin)
T4 sequence (Q9BY41 whole entry): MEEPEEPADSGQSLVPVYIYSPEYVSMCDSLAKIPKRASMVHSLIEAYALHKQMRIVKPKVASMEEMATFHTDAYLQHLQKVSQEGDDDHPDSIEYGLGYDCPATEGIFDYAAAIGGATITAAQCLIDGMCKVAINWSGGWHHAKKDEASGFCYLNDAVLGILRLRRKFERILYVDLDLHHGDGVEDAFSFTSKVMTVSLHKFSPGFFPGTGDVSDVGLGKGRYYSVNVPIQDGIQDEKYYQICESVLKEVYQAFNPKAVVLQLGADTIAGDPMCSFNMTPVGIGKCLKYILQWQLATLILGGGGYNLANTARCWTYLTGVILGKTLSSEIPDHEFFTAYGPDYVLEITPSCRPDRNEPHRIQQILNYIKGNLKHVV

[5] = biological target: T5, Interstitial collagenase (Homo sapiens, UniProt P03956); test: Inhibition of MMP-1 (unknown origin)
T5 sequence (P03956 whole entry): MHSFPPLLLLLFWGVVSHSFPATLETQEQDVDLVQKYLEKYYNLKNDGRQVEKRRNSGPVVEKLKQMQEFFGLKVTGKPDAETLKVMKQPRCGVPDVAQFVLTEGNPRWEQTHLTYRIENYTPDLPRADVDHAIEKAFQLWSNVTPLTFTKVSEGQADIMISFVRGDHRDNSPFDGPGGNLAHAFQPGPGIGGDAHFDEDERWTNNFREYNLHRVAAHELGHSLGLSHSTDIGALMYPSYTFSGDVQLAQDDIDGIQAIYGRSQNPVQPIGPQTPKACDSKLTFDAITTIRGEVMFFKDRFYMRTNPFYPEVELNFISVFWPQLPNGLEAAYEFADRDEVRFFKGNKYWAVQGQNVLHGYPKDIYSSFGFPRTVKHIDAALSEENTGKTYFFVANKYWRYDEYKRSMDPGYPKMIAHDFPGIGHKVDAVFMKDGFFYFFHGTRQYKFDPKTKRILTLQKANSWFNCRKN

[6] = biological target: T3, Neutrophil collagenase; test: Inhibition of MMP-8 (unknown origin)
[7] = system: Jurkat E6.1; test: Induction of apoptosis in human Jurkat E6.1 assessed as reduction in HDAC-8 expression at 2 uM measured after 48 hrs by annexin V-FITC/propidium iodide staining based flow cytometry analysis relative to control; assay type: functional; set-up: scale not given: the % may be the effect or the level left
[8] = system: MOLT-4; test: Cytotoxicity against human MOLT-4 cells incubated for 48 hrs by MTT assay; assay type: functional, cell-based; settings: MOLT-4, 48 h
[9] = system: U-937; test: Cytotoxicity against human U-937 cells incubated for 48 hrs by MTT assay; assay type: functional, cell-based; settings: U-937, 48 h
[10] = system: Jurkat E6.1; test: Induction of apoptosis in human Jurkat E6.1 assessed as reduction in MMP-2 expression at 5 uM measured after 48 hrs by annexin V-FITC/propidium iodide staining based flow cytometry analysis relative to control; assay type: functional; set-up: scale not given: the % may be the effect or the level left
[11] = biological target: T1, Matrix metalloproteinase-9; test: Inhibition of MMP-9 (unknown origin)
[12] = system: Jurkat E6.1; test: Cytotoxicity against human Jurkat E6.1 cells incubated for 48 hrs by MTT assay; assay type: functional, cell-based; settings: Jurkat E6.1, 48 h
[13] = biological target: Macrophage metalloelastase (Homo sapiens, UniProt P39900); test: Inhibition of MMP-12 (unknown origin)
[14] = system: Jurkat E6.1; test: Induction of apoptosis in human Jurkat E6.1 assessed as reduction in HDAC-8 expression at 5 uM measured after 48 hrs by annexin V-FITC/propidium iodide staining based flow cytometry analysis relative to control; assay type: functional; set-up: scale not given: the % may be the effect or the level left
[15] = biological target: Matrix metalloproteinase-14 (Homo sapiens, UniProt P50281); test: Inhibition of MMP-14 (unknown origin)
[16] = system: Jurkat E6.1; test: Induction of apoptosis in human Jurkat E6.1 assessed as reduction in MMP-2 expression at 2 uM measured after 48 hrs by annexin V-FITC/propidium iodide staining based flow cytometry analysis relative to control; assay type: functional; set-up: scale not given: the % may be the effect or the level left
[17] = biological target: T2, 72 kDa type IV collagenase; test: Inhibition of MMP-2 (unknown origin)
[18] = biological target: T1, Matrix metalloproteinase-9; test: Binding affinity to human MMP-9 assessed as residence time
[19] = biological target: Stromelysin-1 (Homo sapiens, UniProt P08254); test: Inhibition of human recombinant MMP-3 assessed as inhibition constant
[20] = system: Jurkat E6.1; test: Induction of apoptosis in human Jurkat E6.1 assessed as reduction in HDAC-8 expression at 10 uM measured after 48 hrs by annexin V-FITC/propidium iodide staining based flow cytometry analysis relative to control; assay type: functional; set-up: scale not given: the % may be the effect or the level left
[21] = system: Jurkat E6.1; test: Induction of apoptosis in human Jurkat E6.1 assessed as reduction in MMP-2 expression at 20 uM measured after 48 hrs by annexin V-FITC/propidium iodide staining based flow cytometry analysis relative to control; assay type: functional; set-up: scale not given: the % may be the effect or the level left
[22] = system: Jurkat E6.1; test: Induction of apoptosis in human Jurkat E6.1 assessed as reduction in HDAC-8 expression at 20 uM measured after 48 hrs by annexin V-FITC/propidium iodide staining based flow cytometry analysis relative to control; assay type: functional; set-up: scale not given: the % may be the effect or the level left
[23] = system: Jurkat E6.1; test: Induction of apoptosis in human Jurkat E6.1 assessed as reduction in MMP-2 expression at 10 uM measured after 48 hrs by annexin V-FITC/propidium iodide staining based flow cytometry analysis relative to control; assay type: functional; set-up: scale not given: the % may be the effect or the level left
[24] = biological target: T6, Matrilysin (Homo sapiens, UniProt P09237); test: Inhibition of MMP-7 (unknown origin)
T6 sequence (P09237 whole entry): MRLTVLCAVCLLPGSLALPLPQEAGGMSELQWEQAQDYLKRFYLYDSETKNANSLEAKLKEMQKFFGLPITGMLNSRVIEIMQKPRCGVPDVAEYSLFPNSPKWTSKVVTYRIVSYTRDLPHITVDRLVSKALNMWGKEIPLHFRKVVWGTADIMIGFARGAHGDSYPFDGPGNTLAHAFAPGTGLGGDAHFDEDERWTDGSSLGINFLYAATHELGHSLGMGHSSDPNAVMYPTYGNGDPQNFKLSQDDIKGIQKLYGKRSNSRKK

[25] = physchem; settings: water
Description: Solubility of the compound in water

[26] = biological target: T5, Interstitial collagenase; test: Inhibition of MMP-1 (unknown origin) assessed as inhibition constant

T1 sequence (P14780 whole entry): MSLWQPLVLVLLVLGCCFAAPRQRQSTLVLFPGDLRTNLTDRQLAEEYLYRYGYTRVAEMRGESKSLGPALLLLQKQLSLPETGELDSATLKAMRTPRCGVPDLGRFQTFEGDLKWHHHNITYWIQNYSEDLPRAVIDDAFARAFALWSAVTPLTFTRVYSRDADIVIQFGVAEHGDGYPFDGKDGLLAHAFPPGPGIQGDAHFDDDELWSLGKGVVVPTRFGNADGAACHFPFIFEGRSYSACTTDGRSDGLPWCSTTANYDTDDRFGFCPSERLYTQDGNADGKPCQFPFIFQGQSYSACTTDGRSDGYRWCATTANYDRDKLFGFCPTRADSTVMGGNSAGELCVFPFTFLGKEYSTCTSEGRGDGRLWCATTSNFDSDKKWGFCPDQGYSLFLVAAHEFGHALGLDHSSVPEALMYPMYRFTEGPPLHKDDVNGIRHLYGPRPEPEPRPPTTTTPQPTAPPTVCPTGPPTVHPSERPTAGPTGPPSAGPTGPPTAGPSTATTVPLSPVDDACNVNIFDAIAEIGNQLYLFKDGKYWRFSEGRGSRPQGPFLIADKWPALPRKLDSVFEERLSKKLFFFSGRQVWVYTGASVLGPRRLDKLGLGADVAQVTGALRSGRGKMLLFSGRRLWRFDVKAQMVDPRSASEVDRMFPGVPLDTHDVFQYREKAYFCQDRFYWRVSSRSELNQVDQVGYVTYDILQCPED
T2 sequence (P08253 whole entry): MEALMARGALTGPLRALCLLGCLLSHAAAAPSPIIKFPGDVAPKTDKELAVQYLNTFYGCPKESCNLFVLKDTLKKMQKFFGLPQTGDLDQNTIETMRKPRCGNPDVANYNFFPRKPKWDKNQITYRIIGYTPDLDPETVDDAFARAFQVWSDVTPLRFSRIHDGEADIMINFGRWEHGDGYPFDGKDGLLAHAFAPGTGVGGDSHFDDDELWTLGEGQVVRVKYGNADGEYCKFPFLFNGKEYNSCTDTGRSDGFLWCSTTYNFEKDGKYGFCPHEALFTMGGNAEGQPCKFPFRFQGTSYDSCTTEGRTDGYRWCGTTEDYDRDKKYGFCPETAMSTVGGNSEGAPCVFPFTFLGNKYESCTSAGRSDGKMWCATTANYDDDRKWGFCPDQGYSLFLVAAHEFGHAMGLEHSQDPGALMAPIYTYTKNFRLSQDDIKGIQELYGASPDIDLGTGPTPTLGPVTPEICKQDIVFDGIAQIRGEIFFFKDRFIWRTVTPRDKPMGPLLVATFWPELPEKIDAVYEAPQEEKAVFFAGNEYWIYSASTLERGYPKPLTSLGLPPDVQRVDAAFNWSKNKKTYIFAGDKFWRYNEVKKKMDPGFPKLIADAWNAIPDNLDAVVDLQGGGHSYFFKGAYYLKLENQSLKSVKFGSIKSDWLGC
T3 sequence (P22894 whole entry): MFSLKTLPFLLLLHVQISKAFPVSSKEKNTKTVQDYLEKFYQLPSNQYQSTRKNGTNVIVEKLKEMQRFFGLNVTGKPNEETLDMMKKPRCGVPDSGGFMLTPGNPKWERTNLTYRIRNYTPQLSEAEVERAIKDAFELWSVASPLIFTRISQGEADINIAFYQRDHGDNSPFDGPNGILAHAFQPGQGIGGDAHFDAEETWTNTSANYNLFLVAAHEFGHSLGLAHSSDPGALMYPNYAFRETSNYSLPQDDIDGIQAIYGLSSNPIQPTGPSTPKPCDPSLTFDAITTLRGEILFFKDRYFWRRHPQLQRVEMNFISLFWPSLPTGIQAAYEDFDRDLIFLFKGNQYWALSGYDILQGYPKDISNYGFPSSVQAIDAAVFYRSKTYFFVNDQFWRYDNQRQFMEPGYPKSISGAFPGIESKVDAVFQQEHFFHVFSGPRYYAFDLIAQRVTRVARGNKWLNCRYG
Sequence of Macrophage metalloelastase (P39900 whole entry): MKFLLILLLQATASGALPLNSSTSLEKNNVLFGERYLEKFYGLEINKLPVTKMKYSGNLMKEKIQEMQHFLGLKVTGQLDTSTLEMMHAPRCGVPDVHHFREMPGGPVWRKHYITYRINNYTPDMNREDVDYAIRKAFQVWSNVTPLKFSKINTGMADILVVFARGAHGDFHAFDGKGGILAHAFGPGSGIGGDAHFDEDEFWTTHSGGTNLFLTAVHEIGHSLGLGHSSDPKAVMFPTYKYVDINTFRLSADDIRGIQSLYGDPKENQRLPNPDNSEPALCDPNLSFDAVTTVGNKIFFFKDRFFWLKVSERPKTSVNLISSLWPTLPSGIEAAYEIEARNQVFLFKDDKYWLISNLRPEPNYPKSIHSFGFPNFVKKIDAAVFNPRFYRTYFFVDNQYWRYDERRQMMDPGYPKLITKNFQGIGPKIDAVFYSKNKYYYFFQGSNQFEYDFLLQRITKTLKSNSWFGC
Sequence of Stromelysin-1 (P08254 whole entry): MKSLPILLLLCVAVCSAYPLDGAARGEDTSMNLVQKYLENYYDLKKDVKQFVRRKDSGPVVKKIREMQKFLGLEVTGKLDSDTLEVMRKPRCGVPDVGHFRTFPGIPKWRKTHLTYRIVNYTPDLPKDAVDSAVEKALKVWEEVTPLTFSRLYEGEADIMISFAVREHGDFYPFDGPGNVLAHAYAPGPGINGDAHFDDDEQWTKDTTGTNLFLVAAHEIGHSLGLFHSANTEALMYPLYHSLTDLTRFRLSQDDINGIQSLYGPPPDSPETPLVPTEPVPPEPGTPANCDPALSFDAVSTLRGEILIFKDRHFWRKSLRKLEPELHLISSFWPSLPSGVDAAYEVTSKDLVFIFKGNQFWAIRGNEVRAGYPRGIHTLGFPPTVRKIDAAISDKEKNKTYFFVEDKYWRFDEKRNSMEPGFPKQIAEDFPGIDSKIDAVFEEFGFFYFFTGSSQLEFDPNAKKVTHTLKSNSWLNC

Which Ki [1] does the source give for `CN1C(=O)N(C[C@H](C(=O)NO)[C@H](CC2CCCC2)C(=O)N2CCCCC2)C(=O)C1(C)C` here?
The Ki was 0.059 µM.

And the Ki [2]?
The Ki was 0.154 µM.

What about the Ki [3] of the same compound?
The Ki was 0.0044 µM.

For `O=C(O)CCC(NC(=O)Cc1ccc(Br)cc1)C(=O)NCc1ccc([N+](=O)[O-])cc1` (stereo not drawn), which IC50 [4] is on record?
The IC50 was 2.89 µM.

What about the IC50 [5] of the same compound?
Its IC50 is greater than 250 µM.

And the IC50 [6]?
The IC50 was 206 µM.

And the Activity [7]?
Its Activity is 48%.

What about the IC50 [8] of the same compound?
Its IC50 is 4.58 µM.

And the IC50 [9]?
Its IC50 is 10.6 µM.

And the Activity [10]?
Its Activity is 70%.

And the IC50 [11]?
The IC50 was 4.83 µM.

And the IC50 [12]?
Its IC50 is 2.77 µM.

What about the IC50 [13] of the same compound?
Its IC50 is 138 µM.

What about the Activity [14] of the same compound?
The Activity was 68%.

What about the IC50 [15] of the same compound?
The IC50 was 56.3 µM.

And the Activity [16]?
Its Activity is 46%.

And the IC50 [17]?
The IC50 was 6.4 µM.

Which TIME [18] does the source give for `O=S(=O)(CC1CS1)c1ccc(Oc2ccccc2)cc1` (stereo not drawn) here?
Its TIME is 0.223 h.

For `COc1ccc(S(=O)(=O)N(Cc2ccccc2)[C@@H](C(=O)NO)C(C)C)cc1`, which Ki [19] is on record?
Its Ki is 0.043 µM.

With `CC(C)NC(=O)C(CCC(=O)O)NC(=O)Cc1ccc(Cl)cc1` (stereo not drawn) as the compound, how does the Activity [20] read?
Its Activity is 32%.

What about the Activity [21] of the same compound?
Its Activity is 58%.

What about the IC50 [8] of the same compound?
The IC50 was 11.8 µM.

And the IC50 [9]?
The IC50 was 29.4 µM.

And the IC50 [12]?
The IC50 was 11.5 µM.

And the Activity [22]?
The Activity was 58%.

What about the Activity [23] of the same compound?
The Activity was 42%.

Which IC50 [5] does the source give for `CNC(=O)[C@@H](NC(=O)[C@H](CC(C)C)NC(=O)[C@@H](S)CCN1C(=O)N(C)C(C)(C)C1=O)C(C)(C)C` [REBIMASTAT] here?
The IC50 was 0.009 µM.

And the IC50 [24]?
The IC50 was 0.023 µM.

What about the IC50 [11] of the same compound?
The IC50 was 0.027 µM.

What about the IC50 [15] of the same compound?
The IC50 was 0.04 µM.

And the IC50 [17]?
The IC50 was 0.039 µM.

For `N=C(N)NCCC[C@H](N)C(=O)Nc1ccc(Oc2ccc(S(=O)(=O)CC3CS3)cc2)cc1` (stereo partly drawn), which solubility [25] is on record?
Its solubility is greater than 10000 µg/mL.

For `O=C(C[C@H](CSc1ccccc1)C(=O)O)c1ccc(-c2ccc(Cl)cc2)cc1` [TANOMASTAT], which Ki [26] is on record?
Its Ki is greater than 5 µM.
